Results reported in paper PMC8191290, “Substrate specificities and reaction kinetics of the yeast oligosaccharyltransferase isoforms” (The Journal of Biological Chemistry, 2021).
The star is where a group is joined. 5‑TAMRA = CN(C)c1ccc2c(-c3ccc(C(=O)*)cc3C(=O)[O-])c3ccc(N(C)C)cc3[o+]c2c1

Key:
OST3 complex [1] = biological target: T1, OST3 complex (Saccharomyces cerevisiae, UniProt P39007); assay: In vitro glycosylation assay, kinetic parameters for synthetic LLOs, OST3 complex; assay type: biochemical; details: OST3 complex, under the tested conditions
T1 construct: were purified separately from strains expressing only one type of complex; made in house; host or cells: Saccharomyces cerevisiae, BY4742-derived strain ost6::LEU2MX6 OST4-1D4::kanMX6 YEp352-OST3
Text: Synthetic LLO substrates all have two GlcNAcs as the sugar moiety, followed by pyrophosphate and lipid moieties (−R) of variable stereochemistry and length, denoted by the carbon chain length. C10, (S)-citronellyl; C15, farnesyl; C20, (S)-citronellylneryl; C25, (S)-citronellylfarnesyl; C90, represents the natural yeast dolichol lipid tail structure where n = 15. Figure modified from Ramirez et al. 2017 ([42]). B, quantification of kinetic parameters for the synthetic LLOs. Reactions were performed with 0.1 μM purified OST3 complex, 25 μM peptide TAMRA-YANATS, and varying concentrations of the different synthetic LLOs. Glycopeptide product was measured by UPLC and turnover rates were determined from the linear initial phase of the reaction. The mean of three reactions is shown and the data were fitted by nonlinear regression according to the Michaelis–Menten formula (R^2 = 0.9842 (LLO C15), 0.9685 (LLO C20), 0.9261 (LLO C25)) using Prism. Error bars indicate standard deviations from the mean (n = 3).
(§1) Concentrations of reactive LLO analogs were determined by in vitro glycosylation (see below) by titrating varying amounts of LLO against a known amount of fluorescently labeled peptide. Concentrations of nonreactive LLO analogs were determined by in vitro glycosylation by titrating varying amounts of nonreactive LLO while using known amounts of both fluorescently labeled peptide and active LLO analog.
(§2) Reactions were performed in a total volume of 10 μl containing the specified amount of TAMRA-labeled peptide, synthetic LLO analog, 10 mM MnCl2, and purified OST after size-exclusion chromatography in purification buffer (50 mM Hepes, pH 7.5, 150 mM NaCl, 1 mM MgCl2, 1 mM MnCl2, 10% (v/v) glycerol, 0.03% (w/v) DDM, and 0.006% (w/v) CHS). The concentration of OST was calculated using the molecular weight of 280 kDa. The reaction mixture was preincubated at 30 °C for 5 min before adding the peptide to start the reaction that proceeded at 30 °C. Time points were taken such that the reaction was in the linear phase. […]
(§3) Samples were analyzed by reverse-phase chromatography using a UPLC Dionex UltiMate 3000 with an Accucore 150-C18 100 × 2.1 mm 2.6 μm column (Thermo Fisher Scientific). One microliter sample (2 pmol of peptide) was injected and measured by isocratic elution using a certain proportion of ACN (15% ACN for peptide TAMRA-DANYTK; 20% ACN for peptide TAMRA-YANATS) in 10 mM KPO4, pH 8.0 buffer so that the glycopeptide and peptide are fully separated and elute within 3 min at a constant flow rate of 0.7 ml/min, with a column temperature of 45 °C. The peptide and glycopeptide were detected through TAMRA fluorescence (excitation wavelength: 546 nm; emission wavelength: 579 nm).
The UPLC profiles were analyzed by integrating the peaks corresponding to the glycopeptide and peptide using Chromeleon 7 (Dionex) and calculating the amount of glycopeptide formed using the following equation, as previously described ([43]): [GP]=PeakareaGP/PeakareaP+PeakareaGP×[P]
[GP] is the concentration of glycopeptide, Peak areaGP/P is the area under the curves measured for the glycopeptide or peptide, respectively, and [P] is the concentration of peptide at the start of the reaction. […] Unless specified otherwise, turnover rates were determined from the initial rates of reaction by taking into account the enzyme concentration in the reaction. […]

OST3 complex [2] = biological target: T1, OST3 complex; assay: Peptide competition assay (unlabeled peptide vs TAMRA-DANYTK); assay type: biochemical; details: 0.4 μM purified OST3 complex, 150 μM LLO C20, 25 μM TAMRA-DANYTK, 25 μM unlabeled competitor peptide, 30 min, relative to control without competitor
Description: Figure 2 In vitro glycosylation assay for OST activity and peptide sequence preferences.A, schematic representation of the in vitro reaction setup for yeast OST activity. The peptide substrate containing the glycosylation sequon N-X-(S/T) is labeled with the TAMRA fluorophore at the N-terminus. Incubation with OST, synthetic LLO, and a divalent metal ion (Mn^2+preferred) results in the transfer of the sugar moiety (two GlcNAcs, blue squares) from the LLO to the fluorescently labeled peptide, yielding a glycopeptide product. […] The glycopeptide elutes earlier than the peptide and amounts of glycopeptide are quantified at different reaction time points by peak integration. C, quantification of kinetic parameters for synthetic peptide TAMRA-DANYTK. […] Glycopeptide product was measured by UPLC and turnover rates were determined by linear regression of the initial phase of the reaction and taking into account the enzyme concentration. […] E, quantification of kinetic parameters for synthetic peptide TAMRA-YANATS. […] Turnover rates were determined as in C. […]
(§4) Samples were analyzed by reverse-phase chromatography using a UPLC Dionex UltiMate 3000 with an Accucore 150-C18 100 × 2.1 mm 2.6 μm column (Thermo Fisher Scientific). […]

yeast OST3 complex = assay: Inhibition of OST activity by nonhydrolyzable LLO analogs; assay type: biochemical, Saccharomyces cerevisiae; details: for IC50: 0.1 μM purified OST3 complex, 25 μM TAMRA-YANATS, 50 μM LLO C20, inhibitor 2.5–2000 μM (Ia) or 2.5–3000 μM (Ib), 30 °C, read-out: IC50 (apparent)
Text: Figure 4 Inhibition of yeast OST activity by synthetic nonhydrolyzable LLOs in vitro.A, structure of synthetic nonhydrolyzable LLOs. Synthetic nonreactive LLOs have two GlcNAcs as the sugar moiety, followed by pyrophosphonate and lipid moieties of variable stereochemistry and length, denoted by the carbon chain length. Ia, GlcNAc2-(OH)CPP-(S)-citronellylneryl (C20); Ib, GlcNAc2-CPP-(S)-citronellylfarnesyl (C25). Note that Ia is a hydroxy-phosphonate (with an additional OH group, single diastereomer, R/S configuration unassigned), while Ib is a phosphonate without an additional hydroxyl group. Figure modified from Ramirez et al. 2017 ([42]). B, quantification of inhibition by nonhydrolyzable LLOs shown in A. Reactions were performed with 0.1 μM purified OST3 complex, 25 μM peptide TAMRA-YANATS, 50 μM LLO C20, and varying concentrations of the different synthetic inhibitory LLOs. Glycopeptide product was measured by UPLC and turnover rates were determined from the linear initial phase of the reaction. % inhibition was determined relative to a control reaction without nonhydrolyzable LLOs. […]
as §1
as §2, with “kDa.” for “kDa. The reaction mixture was preincubated at 30 °C for 5 min before adding the peptide to start the reaction that proceeded at 30 °C. Time points were taken such that the reaction was in the linear phase.”
as §4

TbStt3A = details: reported for TbStt3A, compound 34d; ref [42]; cited from earlier work
Text: The nonreactive LLO analogs Ia and Ib had the same disaccharide and lipid structures as the reactive LLO substrates LLO C20 and LLO C25, respectively. However, they differed from their reactive counterpar ...

OST3 complex [3] = biological target: T1, OST3 complex; assay: Turnover of synthetic TAMRA-labeled peptides; assay type: biochemical; details: 0.5 µM OST3 complex, 20 µM peptide
Description: TAMRA-labeled peptides with 5-TAMRA at the N-terminus and an amide group at the C-terminus were synthesized by WatsonBio Sciences. Unlabeled peptides (Table S1) were synthesized by Genscript Corp. and were designed so that the asparagine of the glycosylation sequon was in the middle (except for Peptide 8). Lyophilized peptides were dissolved in dimethyl sulfoxide (DMSO), unless specified otherwise, to a 3 mM stock solution and further diluted in ddH2O for reactions.
Reactions were performed in a total volume of 10 μl containing the specified amount of TAMRA-labeled peptide, synthetic LLO analog, 10 mM MnCl2, and purified OST after size-exclusion chromatography in purification buffer (50 mM Hepes, pH 7.5, 150 mM NaCl, 1 mM MgCl2, 1 mM MnCl2, 10% (v/v) glycerol, 0.03% (w/v) DDM, and 0.006% (w/v) CHS). The concentration of OST was calculated using the molecular weight of 280 kDa. The reaction mixture was preincubated at 30 °C for 5 min before adding the peptide to start the reaction that proceeded at 30 °C. Time points were taken such that the reaction was in the linear phase. At each time point, 1 μl reaction mixture was taken and the reaction was stopped by dilution in stop solution (0.1% FA in 10% ACN, 10 mM KPO4 pH 8.0) such that the final peptide concentration was 2 μM.
as §3
The UPLC profiles were analyzed by integrating the peaks corresponding to the glycopeptide and peptide using Chromeleon 7 (Dionex) and calculating the amount of glycopeptide formed using the following equation, as previously described ([43]): [GP]=PeakareaGP/PeakareaP+PeakareaGP×[P] […]
Supp. Table 2. Turnover of synthetic TAMRA-labeled peptides
Peptide Glycopeptide Turnover after 5 min Relative turnover […]
TAMRA, tetramethylrhodamine
Turnover of TAMRA-labeled peptides after 5 min was determined using 0.5 µM OST3 complex, 20 µM indicated peptide and 150 µM LLO C20. Relative turnover compared to TAMRA-DANYTK is given by defining TAMRA-DANYTK turnover as 100 %.

[4] = biological target: Ost3p-containing yeast oligosaccharyltransferase complex (S. cerevisiae) (UniProt P41543)
[5] = biological target: Ost6p-containing yeast oligosaccharyltransferase complex (S. cerevisiae) (UniProt P41543)

For `CC(=O)NC1C(OC2C(CO)OC(OP(=O)(O)OP(=O)(O)OCCC(C)CCC=C(C)C)C(NC(C)=O)C2O)OC(CO)C(O)C1O` (stereo not drawn) [LLO C10], the “activity as LLO substrate” value (OST3 complex [1]) was “no detectable activity”.

With ADTYANATSDVL [Peptide 5] the “% inhibition of TAMRA-DANYTK glycopeptide formation” value (OST3 complex [2]) was 50%.

With “GlcNAc2-(OH)CPP-(S)-citronellylneryl [Ia]” the IC50 (yeast OST3 complex) was 44 µM and the “relative inhibitory potency, in words” value (yeast OST3 complex; OST3 complex) was “more potent inhibitor of the yeast OST3 complex than Ib”.

In the case of “GlcNAc2-CPP-(S)-citronellylfarnesyl [Ib]”, the IC50 (yeast OST3 complex) is listed as 198 µM and the IC50 (TbStt3A) is listed as 26 ± 3 µM.

For “TAMRA-ADTYANATSDVL [TAMRA-labeled Peptide 5]”, the “Turnover after 5 min” value (OST3 complex [3]; 150 µM LLO C20) was 10%, the Glycopeptide detected (OST3 complex [3]; 150 µM LLO C20, 5 min) was “Yes” and the Relative turnover (OST3 complex [3]; TAMRA-DANYTK turnover defined as 100 %, 5 min, 150 µM LLO C20) was 167%.

B1: TAMRA-DANYTK-NH2 (peptide)
peptide: {5‑TAMRA}-DANYTK-NH2
SMILES: C[C@H](NC(=O)[C@H](CC(=O)O)NC(=O)c1ccc(-c2c3ccc(N(C)C)cc3[o+]c3cc(N(C)C)ccc23)c(C(=O)[O-])c1)C(=O)N[C@@H](CC(N)=O)C(=O)N[C@@H](Cc1ccc(O)cc1)C(=O)N[C@H](C(=O)N[C@@H](CCCCN)C(N)=O)[C@@H](C)O
Work on B1 yielded an apparent KM of the peptide in the in vitro glycosylation assay (Michaelis-Menten fit; about 1 μM OST3 complex, 150 μM LLO C20, 10-400 μM peptide, 30 °C) [4] of 201 µM.

B2: TAMRA-YANATS (peptide)
peptide: {5‑TAMRA}-YANATS-NH2
SMILES: C[C@H](NC(=O)[C@H](Cc1ccc(O)cc1)NC(=O)c1ccc(-c2c3ccc(N(C)C)cc3[o+]c3cc(N(C)C)ccc23)c(C(=O)[O-])c1)C(=O)N[C@@H](CC(N)=O)C(=O)N[C@@H](C)C(=O)N[C@H](C(=O)N[C@@H](CO)C(N)=O)[C@@H](C)O
With B2 the apparent KM of the peptide in the in vitro glycosylation assay (Michaelis-Menten fit; 0.1 μM OST3 complex, 100 μM LLO C20, 10-500 μM peptide, 30 °C) [4] was 55.6 µM and the apparent KM of the peptide in the in vitro glycosylation assay (Michaelis-Menten fit; 0.1 μM OST6 complex, 100 μM LLO C20, varying peptide, 30 °C) [5] was 44.8 µM.
